Measured values reported in PubChem BioAssay (NCI).
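Grown in 96-well plates, cells were treated for 48 hours with each compound at five concentrations. Insufficient inhibition: endpoint recorded as highest concentration tested. The concentration for full growth arrest is given as TGI.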

Columns and labels:
Experiment in all cases: growth of human tumour cells (NCI), 48 h
RXF-631 renal = test system: RXF-631 renal
SR leukemia = test system: SR leukemia
NCI-H226 lung = test system: NCI-H226 lung
NCI-H522 lung = test system: NCI-H522 lung
786-0 renal = test system: 786-0 renal
K-562 leukemia = test system: K-562 leukemia
HOP-62 NSCLC = test system: HOP-62 NSCLC
UO-31 renal = test system: UO-31 renal
SNB-19 CNS = test system: SNB-19 CNS
SN12C renal = test system: SN12C renal
UACC-257 melanoma = test system: UACC-257 melanoma
ACHN renal = test system: ACHN renal
NCI-H23 lung = test system: NCI-H23 lung
U251 CNS = test system: U251 CNS
HCT-116 colon = test system: HCT-116 colon
MOLT-4 leukemia = test system: MOLT-4 leukemia
KM12 colon = test system: KM12 colon
SW-620 colon = test system: SW-620 colon
SF-268 CNS = test system: SF-268 CNS
HCC-2998 colon = test system: HCC-2998 colon
CAKI-1 renal = test system: CAKI-1 renal
OVCAR-8 ovarian = test system: OVCAR-8 ovarian
SK-MEL-28 melanoma = test system: SK-MEL-28 melanoma
SK-OV-3 ovarian = test system: SK-OV-3 ovarian
SF-539 CNS = test system: SF-539 CNS
A549 NSCLC = test system: A549 NSCLC
HL-60(TB) leukemia = test system: HL-60(TB) leukemia
RXF 393 renal = test system: RXF 393 renal
SK-MEL-2 melanoma = test system: SK-MEL-2 melanoma
M19-MEL melanoma = test system: M19-MEL melanoma
DMS 273 small cell lung = test system: DMS 273 small cell lung
HCT-15 colon = test system: HCT-15 colon
EKVX NSCLC = test system: EKVX NSCLC
TK-10 renal = test system: TK-10 renal
NCI-H460 lung = test system: NCI-H460 lung
UACC-62 melanoma = test system: UACC-62 melanoma
OVCAR-3 ovarian = test system: OVCAR-3 ovarian
CCRF-CEM leukemia = test system: CCRF-CEM leukemia
OVCAR-5 ovarian = test system: OVCAR-5 ovarian
M14 melanoma = test system: M14 melanoma
SNB-78 CNS = test system: SNB-78 CNS
MALME-3M melanoma = test system: MALME-3M melanoma
A498 renal = test system: A498 renal
SF-295 CNS = test system: SF-295 CNS
IGROV1 ovarian = test system: IGROV1 ovarian
DMS 114 small cell lung = test system: DMS 114 small cell lung
OVCAR-4 ovarian = test system: OVCAR-4 ovarian
HT29 colon = test system: HT29 colon

Question: Which results are given for `CCOc1nc(OCC)nc(-c2cccn2-c2ccccc2)n1`?
Answer: TGI (RXF-631 renal): > 100 µM; TGI (SR leukemia): 99.7 µM; TGI (NCI-H226 lung): > 100 µM; TGI (NCI-H522 lung): > 100 µM; TGI (786-0 renal): > 100 µM; TGI (K-562 leukemia): > 100 µM; TGI (HOP-62 NSCLC): > 100 µM; TGI (UO-31 renal): 67.9 µM; TGI (SNB-19 CNS): > 100 µM; TGI (SN12C renal): > 100 µM; TGI (UACC-257 melanoma): > 100 µM; TGI (ACHN renal): > 100 µM; TGI (NCI-H23 lung): > 100 µM; TGI (U251 CNS): 48.6 µM; TGI (HCT-116 colon): > 100 µM; TGI (MOLT-4 leukemia): 57.4 µM; TGI (KM12 colon): > 100 µM; TGI (SW-620 colon): > 100 µM; TGI (SF-268 CNS): > 100 µM; TGI (HCC-2998 colon): > 100 µM; TGI (CAKI-1 renal): > 100 µM; TGI (OVCAR-8 ovarian): > 100 µM; TGI (SK-MEL-28 melanoma): > 100 µM; TGI (SK-OV-3 ovarian): 75 µM; TGI (SF-539 CNS): > 100 µM; TGI (A549 NSCLC): > 100 µM; TGI (HL-60(TB) leukemia): 82.5 µM; TGI (RXF 393 renal): > 100 µM; TGI (SK-MEL-2 melanoma): 97.1 µM; TGI (M19-MEL melanoma): > 100 µM; TGI (DMS 273 small cell lung): > 100 µM; TGI (HCT-15 colon): > 100 µM; TGI (EKVX NSCLC): > 100 µM; TGI (TK-10 renal): 89.2 µM; TGI (NCI-H460 lung): > 100 µM; TGI (UACC-62 melanoma): > 100 µM; TGI (OVCAR-3 ovarian): 69.3 µM; TGI (CCRF-CEM leukemia): > 100 µM; TGI (OVCAR-5 ovarian): > 100 µM; TGI (M14 melanoma): > 100 µM; TGI (SNB-78 CNS): > 100 µM; TGI (MALME-3M melanoma): 60.6 µM; TGI (A498 renal): > 100 µM; TGI (SF-295 CNS): > 100 µM; TGI (IGROV1 ovarian): 89.3 µM; TGI (DMS 114 small cell lung): 86.8 µM; TGI (OVCAR-4 ovarian): > 100 µM; TGI (HT29 colon): > 100 µM
